The source of these data is the supplement of paper PMC9151546.

Some results are limits rather than exact numbers.

The subject of test [1] is CHO-K1. The test is described as follows: benchmark concentration for 60% increase in hypodiploid frequency (BMC60); higher = less potent aneugen. The gist of the method: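 Chinese hamster ovary (CHO) cells were treated with 19 concentrations from 4.50 to 200 µM in 1% DMSO vehicle, either for 24 h at 37 °C without S9 or for 3–4 h with Aroclor 1254-induced rat liver S9 followed by 24 h recovery. Flow cytometry measured the percentage of hypodiploid nuclei, with concentrations giving relative survival below 40% excluded and the benchmark response set at a 60% increase over the DMSO control. The benchmark concentration was fitted in PROAST using Hill and exponential model families.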

Test [2] deals with CHO-K1. The test is described as follows: benchmark concentration for 30% increase in micronucleus frequency (BMC30); higher = less potent clastogen. As to the method: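 Benchmark concentration modelling (PROAST, Hill/exponential model families) of the 19-concentration flow-cytometric micronucleus assay in CHO-K1 cells, with and without rat liver S9. Only non-cytotoxic and adequate (relative survival >=40%) concentrations were used. BMR was a 30% increase in %MN (BMC30) or a 60% increase in %hypodiploid (BMC60) over control.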

Where [3] appears, read: S9 metabolic activation: without S9.
Where [4] appears, read: S9 metabolic activation: with S9.

As for `NC(=O)N/N=C/c1ccc([N+](=O)[O-])o1` [Nitrofurazone], the benchmark concentration with CHO-K1 [1] (setting [3]) was found to be 68 µM; in the test with CHO-K1 [2] (setting [3]), 24 µM.
As for `ClC1=C(Cl)[C@]2(Cl)[C@@H]3[C@@H]4C[C@@H]([C@H]5O[C@@H]45)[C@@H]3[C@@]1(Cl)C2(Cl)Cl` [Dieldrin], the benchmark concentration in the test on CHO-K1 [1] (setting [3]) is 90 µM; in the test on CHO-K1 [2] (setting [3]) it was 74 µM.
As to `O=C(O)C(F)(F)C(F)(F)C(F)(F)C(F)(F)C(F)(F)C(F)(F)C(F)(F)C(F)(F)C(F)(F)F` [PFDA], the benchmark concentration in the test with CHO-K1 [1] (setting [3]) and in the test on CHO-K1 [2] (setting [4]) was 73 µM each time.
Turning to `CC(C)(OO)c1ccccc1` [Cumene hydroperoxide], the figures for the benchmark concentration in the test with CHO-K1 [1] (setting [3]) and with CHO-K1 [2] (setting [3]) were 63 µM and 56 µM, respectively.
Consider `O=C1c2c(O)cccc2Cc2cccc(O)c21` [Anthralin], for which the benchmark concentration was found to be 16 µM in the test on CHO-K1 [1] (setting [3]) and 110 µM in the test with CHO-K1 [2] (setting [3]).
Take `C/C=C/C=C/C(=O)O` [Sorbic acid]: the values for the benchmark concentration in the test with CHO-K1 [1] (setting [3]) and with CHO-K1 [2] (setting [3]) were 37 µM and 29 µM, respectively.
For the compound `c1ccc(NNc2ccccc2)cc1` [1,2-Diphenylhydrazine], the benchmark concentration in the test on CHO-K1 [1] (setting [4]) was found to be 45 µM; with CHO-K1 [1] (setting [3]), 68 µM; with CHO-K1 [2] (setting [4]), 22 µM; in the test with CHO-K1 [2] (setting [3]), 46 µM.
Turning to `N#CC(Br)Br` [Dibromoacetonitrile], the benchmark concentration came out at 15 µM in the test on CHO-K1 [1] (setting [3]) and 32 µM with CHO-K1 [2] (setting [3]).
Turning to `O=c1c(-c2ccc(O)cc2)coc2cc(O)ccc12` [Daidzein], the benchmark concentration in the test with CHO-K1 [1] (setting [4]) was found to be 47 µM; in the test with CHO-K1 [2] (setting [4]) it was 14 µM.
On to `c1ccc2c(c1)-c1cccc3c1c-2cc1ccccc13` [Benzo(b)fluoranthene], for which the benchmark concentration with CHO-K1 [1] (setting [3]) was 93 µM; with CHO-K1 [2] (setting [3]) it was 130 µM.
`Cn1cnc([N+](=O)[O-])c1Sc1ncnc2[nH]cnc12` [Azathioprine]: the benchmark concentration in the test on CHO-K1 [1] (setting [4]) was determined as 170 µM; in the test on CHO-K1 [1] (setting [3]) it was 18 µM; in the test with CHO-K1 [2] (setting [3]) it was 83 µM.
In the case of `COC(=O)c1ccccc1O` [Methyl salicylate], the results for the benchmark concentration in the test with CHO-K1 [1] (setting [3]), in the test with CHO-K1 [2] (setting [4]) and in the test with CHO-K1 [2] (setting [3]) were 67 µM, 58 µM and 15 µM, respectively.
As to `Cc1cccc([N+](=O)[O-])c1C` [1,2-Dimethyl-3-nitrobenzene], the benchmark concentration in the test on CHO-K1 [1] (setting [3]) was determined as 38 µM; with CHO-K1 [2] (setting [4]), 59 µM; in the test on CHO-K1 [2] (setting [3]), 41 µM.
`CN(C)c1ccc(N=NS(=O)(=O)O)cc1` [Fenaminosulf]: the benchmark concentration with CHO-K1 [1] (setting [3]) was determined as 41 µM; in the test on CHO-K1 [2] (setting [3]) it was 27 µM.
`c1cc2ccc3cccc4ccc(c1)c2c34` [Pyrene]: the benchmark concentration amounted to 110 µM in the test on CHO-K1 [1] (setting [3]) and 40 µM with CHO-K1 [2] (setting [4]).
On to `CCOP(=S)(OCC)Oc1nc(Cl)c(Cl)cc1Cl` [Chlorpyrifos], for which the benchmark concentration is 42 µM with CHO-K1 [1] (setting [4]), 69 µM in the test on CHO-K1 [1] (setting [3]) and 29 µM in the test on CHO-K1 [2] (setting [4]).
Take `ClC1(Cl)C2(Cl)C3(Cl)C4(Cl)C(Cl)(Cl)C5(Cl)C3(Cl)C1(Cl)C5(Cl)C24Cl` (stereo unspecified) [Mirex]: the benchmark concentration with CHO-K1 [1] (setting [3]) was 28 µM; in the test on CHO-K1 [2] (setting [3]), 36 µM.
Turning to `CC1(C)NC(=O)N(c2ccc([N+](=O)[O-])c(C(F)(F)F)c2)C1=O` [Nilutamide], the benchmark concentration with CHO-K1 [1] (setting [3]) amounted to 39 µM; in the test with CHO-K1 [2] (setting [3]), 21 µM.
The like results for `CCNc1ccccc1` [N-Ethylaniline] were, in that order, 35 µM and 77 µM.
Consider `Oc1cc(Cl)c(Cl)cc1Cl` [2,4,5-Trichlorophenol], for which the values for the benchmark concentration with CHO-K1 [1] (setting [3]) and in the test on CHO-K1 [2] (setting [4]) were 38 µM and 6.5 µM, respectively.
For `CCC(C)(C)c1ccc(O)cc1` [4-(2-Methylbutan-2-yl)phenol], the results for the benchmark concentration in the test on CHO-K1 [1] (setting [3]) and with CHO-K1 [2] (setting [4]) were 140 µM and 81 µM, respectively.
As for `CN(C)c1ccc(Cc2ccc(N(C)C)cc2)cc1` [4,4'-Methylenebis(N,N-dimethylaniline)], the benchmark concentration in the test with CHO-K1 [1] (setting [4]) stood at 75 µM; in the test on CHO-K1 [1] (setting [3]), 38 µM; with CHO-K1 [2] (setting [4]), 56 µM.
`OCCCl` [2-Chloroethanol]: the benchmark concentration in the test with CHO-K1 [1] (setting [3]) came out at 130 µM; in the test on CHO-K1 [2] (setting [3]), 60 µM.
The corresponding values for `O=C1CN(/N=C/c2ccc([N+](=O)[O-])o2)C(=O)N1` [Nitrofurantoin] are 31 µM and 55 µM.
`Nc1ccc([N+](=O)[O-])cc1` [4-Nitroaniline]: the benchmark concentration turned out to be 100 µM in the test with CHO-K1 [1] (setting [3]) and 11 µM in the test with CHO-K1 [2] (setting [3]).
For `C#C[C@]1(O)CC[C@H]2[C@@H]3CCc4cc(O)ccc4[C@H]3CC[C@@]21C` [17alpha-Ethinylestradiol], the benchmark concentration in the test on CHO-K1 [1] (setting [3]) was below 4.5 µM; with CHO-K1 [2] (setting [4]) it was 58 µM.
For `COP(=O)(OC)OC=C(Cl)Cl` [Dichlorvos], the benchmark concentration with CHO-K1 [1] (setting [3]) turned out to be 90 µM; in the test with CHO-K1 [2] (setting [3]), 66 µM.
Turning to `CC(C)(c1ccccc1)c1ccc(O)cc1` [4-Cumylphenol], the benchmark concentration worked out at 44 µM in the test on CHO-K1 [1] (setting [3]) and 26 µM with CHO-K1 [2] (setting [3]).
Consider `CN(C)c1ccc(C(=O)c2ccc(N(C)C)cc2)cc1` [Michlers ketone], for which the benchmark concentration in the test on CHO-K1 [1] (setting [4]) turned out to be 22 µM; in the test with CHO-K1 [2] (setting [4]) it was 27 µM.
With `Cc1cc(Cc2ccc(N)c(C)c2)ccc1N` [4,4'-Methylenebis(2-methylaniline)], the results for the benchmark concentration in the test with CHO-K1 [1] (setting [3]) and in the test on CHO-K1 [2] (setting [3]) were 33 µM and 37 µM, respectively.
For `Nc1nc(=S)c2[nH]cnc2[nH]1` [6-Thioguanine], the benchmark concentration is 74 µM with CHO-K1 [1] (setting [4]), 33 µM in the test on CHO-K1 [2] (setting [4]) and below 4.5 µM in the test with CHO-K1 [2] (setting [3]).
For `NC1CCCCC1` [Cyclohexylamine], the benchmark concentration in the test with CHO-K1 [1] (setting [3]) turned out to be 43 µM; in the test on CHO-K1 [2] (setting [3]), 72 µM.
In the case of `CC1(C)C(=O)N(Cl)C(=O)N1Cl` [1,3-Dichloro-5,5-dimethylhydantoin], the benchmark concentration was 55 µM with CHO-K1 [1] (setting [3]) and 31 µM with CHO-K1 [2] (setting [3]).
`NS(=O)(=O)c1cc2c(cc1Cl)NCNS2(=O)=O` [Hydrochlorothiazide]: the benchmark concentration came to 73 µM in the test with CHO-K1 [1] (setting [3]) and 29 µM in the test with CHO-K1 [2] (setting [4]).
Regarding `ClCC(Cl)CCl` [1,2,3-Trichloropropane], the values for the benchmark concentration in the test with CHO-K1 [1] (setting [3]) and in the test with CHO-K1 [2] (setting [3]) were 72 µM and 46 µM, respectively.
The like results for `Cc1ccccc1N` [2-Methylaniline] were, in that order, 49 µM and 21 µM.
In the case of `ClC1=C(Cl)C2(Cl)C3C(Cl)C=CC3C1(Cl)C2(Cl)Cl` (stereo unspecified) [Heptachlor], the benchmark concentration in the test on CHO-K1 [1] (setting [4]) is 19 µM; with CHO-K1 [1] (setting [3]) it was 20 µM; in the test with CHO-K1 [2] (setting [4]), 11 µM; in the test with CHO-K1 [2] (setting [3]), 64 µM.
As for `COc1ccc(C)cc1N` [2-Methoxy-5-methylaniline], the benchmark concentration in the test on CHO-K1 [1] (setting [3]) was determined as 89 µM; in the test with CHO-K1 [2] (setting [3]), 48 µM.
